Reference: ChEMBL document CHEMBL1201862, “PubChem BioAssay data set” (2004)
Active and inactive are the calls of the source.

Legend:
[1] = target: C-C chemokine receptor type 6 (Homo sapiens, UniProt P51684); assay: CCR6 receptor antagonists, dose response, cell-based, luminescent beta-arrestin readout (AID 504728); type: functional
[2] = target: Beta-galactosidase (Escherichia coli, UniProt Q8VNN2); assay: beta-galactosidase enzyme inhibitors and activators, dose response, artefact control for CCR6 antagonist project, biochemical, E. coli enzyme, set 3 (AID 504712); type: functional
[3] = inhibition of K1F phage lysis, E. coli UTI89, bacterial capsule biogenesis inhibitors, alamar blue (AID 488966); type: functional
[4] = target: T1, Replicative DNA helicase DnaB (Mycobacterium tuberculosis, UniProt P9WMR3); assay: DnaB intein splicing inhibitors, dose response, biochemical, cell-free fluorescence (AID 449749); type: functional
T1 sequence (P9WMR3 whole entry): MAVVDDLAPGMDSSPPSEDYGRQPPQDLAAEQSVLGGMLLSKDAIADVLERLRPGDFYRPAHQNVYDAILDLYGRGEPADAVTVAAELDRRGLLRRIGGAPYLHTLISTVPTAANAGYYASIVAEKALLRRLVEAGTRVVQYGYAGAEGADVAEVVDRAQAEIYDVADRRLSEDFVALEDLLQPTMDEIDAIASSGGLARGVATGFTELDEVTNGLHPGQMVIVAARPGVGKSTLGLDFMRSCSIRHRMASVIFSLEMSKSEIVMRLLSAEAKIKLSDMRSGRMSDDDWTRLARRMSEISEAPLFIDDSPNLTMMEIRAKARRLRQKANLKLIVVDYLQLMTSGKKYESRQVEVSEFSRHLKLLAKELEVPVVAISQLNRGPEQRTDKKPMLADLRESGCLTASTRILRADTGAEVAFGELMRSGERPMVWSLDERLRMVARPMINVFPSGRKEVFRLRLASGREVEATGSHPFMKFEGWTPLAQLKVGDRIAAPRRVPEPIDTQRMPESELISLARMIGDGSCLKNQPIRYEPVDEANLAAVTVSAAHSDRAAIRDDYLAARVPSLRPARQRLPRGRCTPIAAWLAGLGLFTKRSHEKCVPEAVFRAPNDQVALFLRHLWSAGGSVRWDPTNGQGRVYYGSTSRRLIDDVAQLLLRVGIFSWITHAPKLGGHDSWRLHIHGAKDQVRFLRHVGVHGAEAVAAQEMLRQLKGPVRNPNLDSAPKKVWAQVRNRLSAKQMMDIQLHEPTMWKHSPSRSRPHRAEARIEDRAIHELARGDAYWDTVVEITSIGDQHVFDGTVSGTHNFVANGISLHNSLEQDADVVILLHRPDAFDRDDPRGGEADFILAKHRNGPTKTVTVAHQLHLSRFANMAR

[5] = target: Genome polyprotein (dengue virus type 2, UniProt P29990); assay: Dengue-2 NS5 methyltransferase inhibitors, primary screen, biochemical, confirmation dose response (AID 588689); type: functional
[6] = target: T2, Protein RecA (Mycobacterium tuberculosis, UniProt P9WHJ3); assay: Fluorescence Cell-Free Homogeneous Dose Retest to Identify Inhibitors of RecA-Intein Splicing Activity. [Related pubchem assays (depositor defined):AID2097, AID2223, AID489010, AID492950]; type: functional
T2 sequence (P9WHJ3 whole entry): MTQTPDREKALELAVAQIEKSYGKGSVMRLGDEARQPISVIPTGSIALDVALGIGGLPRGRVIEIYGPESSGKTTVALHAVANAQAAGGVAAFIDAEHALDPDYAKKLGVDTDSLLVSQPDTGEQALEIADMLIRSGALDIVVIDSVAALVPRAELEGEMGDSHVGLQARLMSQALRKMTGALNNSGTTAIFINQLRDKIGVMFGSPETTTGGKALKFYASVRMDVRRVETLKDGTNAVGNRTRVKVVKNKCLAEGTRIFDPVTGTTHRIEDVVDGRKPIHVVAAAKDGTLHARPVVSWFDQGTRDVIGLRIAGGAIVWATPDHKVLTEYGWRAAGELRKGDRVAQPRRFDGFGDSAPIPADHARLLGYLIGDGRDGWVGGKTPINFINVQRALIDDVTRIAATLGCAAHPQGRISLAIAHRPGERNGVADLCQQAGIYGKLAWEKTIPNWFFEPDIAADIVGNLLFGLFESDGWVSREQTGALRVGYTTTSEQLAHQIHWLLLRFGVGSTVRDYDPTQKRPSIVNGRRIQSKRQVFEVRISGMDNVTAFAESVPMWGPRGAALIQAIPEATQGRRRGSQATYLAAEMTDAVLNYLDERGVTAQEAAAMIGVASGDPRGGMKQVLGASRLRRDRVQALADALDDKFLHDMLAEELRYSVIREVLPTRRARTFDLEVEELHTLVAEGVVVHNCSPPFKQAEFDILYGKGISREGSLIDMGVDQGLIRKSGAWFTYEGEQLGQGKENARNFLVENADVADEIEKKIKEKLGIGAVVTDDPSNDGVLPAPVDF

[7] = target: T3, Voltage-gated N-type calcium channel alpha-1B subunit/Amyloid beta A4 precursor protein-binding family A member 1 (Homo sapiens, UniProt Q00975+Q02410); assay: disruptors of Mint-PDZ/N-type channel peptide interaction – biochemical, HTRF, set 2, SAR follow-up (AID 434980); type: functional
T3 sequence (Q00975 whole entry): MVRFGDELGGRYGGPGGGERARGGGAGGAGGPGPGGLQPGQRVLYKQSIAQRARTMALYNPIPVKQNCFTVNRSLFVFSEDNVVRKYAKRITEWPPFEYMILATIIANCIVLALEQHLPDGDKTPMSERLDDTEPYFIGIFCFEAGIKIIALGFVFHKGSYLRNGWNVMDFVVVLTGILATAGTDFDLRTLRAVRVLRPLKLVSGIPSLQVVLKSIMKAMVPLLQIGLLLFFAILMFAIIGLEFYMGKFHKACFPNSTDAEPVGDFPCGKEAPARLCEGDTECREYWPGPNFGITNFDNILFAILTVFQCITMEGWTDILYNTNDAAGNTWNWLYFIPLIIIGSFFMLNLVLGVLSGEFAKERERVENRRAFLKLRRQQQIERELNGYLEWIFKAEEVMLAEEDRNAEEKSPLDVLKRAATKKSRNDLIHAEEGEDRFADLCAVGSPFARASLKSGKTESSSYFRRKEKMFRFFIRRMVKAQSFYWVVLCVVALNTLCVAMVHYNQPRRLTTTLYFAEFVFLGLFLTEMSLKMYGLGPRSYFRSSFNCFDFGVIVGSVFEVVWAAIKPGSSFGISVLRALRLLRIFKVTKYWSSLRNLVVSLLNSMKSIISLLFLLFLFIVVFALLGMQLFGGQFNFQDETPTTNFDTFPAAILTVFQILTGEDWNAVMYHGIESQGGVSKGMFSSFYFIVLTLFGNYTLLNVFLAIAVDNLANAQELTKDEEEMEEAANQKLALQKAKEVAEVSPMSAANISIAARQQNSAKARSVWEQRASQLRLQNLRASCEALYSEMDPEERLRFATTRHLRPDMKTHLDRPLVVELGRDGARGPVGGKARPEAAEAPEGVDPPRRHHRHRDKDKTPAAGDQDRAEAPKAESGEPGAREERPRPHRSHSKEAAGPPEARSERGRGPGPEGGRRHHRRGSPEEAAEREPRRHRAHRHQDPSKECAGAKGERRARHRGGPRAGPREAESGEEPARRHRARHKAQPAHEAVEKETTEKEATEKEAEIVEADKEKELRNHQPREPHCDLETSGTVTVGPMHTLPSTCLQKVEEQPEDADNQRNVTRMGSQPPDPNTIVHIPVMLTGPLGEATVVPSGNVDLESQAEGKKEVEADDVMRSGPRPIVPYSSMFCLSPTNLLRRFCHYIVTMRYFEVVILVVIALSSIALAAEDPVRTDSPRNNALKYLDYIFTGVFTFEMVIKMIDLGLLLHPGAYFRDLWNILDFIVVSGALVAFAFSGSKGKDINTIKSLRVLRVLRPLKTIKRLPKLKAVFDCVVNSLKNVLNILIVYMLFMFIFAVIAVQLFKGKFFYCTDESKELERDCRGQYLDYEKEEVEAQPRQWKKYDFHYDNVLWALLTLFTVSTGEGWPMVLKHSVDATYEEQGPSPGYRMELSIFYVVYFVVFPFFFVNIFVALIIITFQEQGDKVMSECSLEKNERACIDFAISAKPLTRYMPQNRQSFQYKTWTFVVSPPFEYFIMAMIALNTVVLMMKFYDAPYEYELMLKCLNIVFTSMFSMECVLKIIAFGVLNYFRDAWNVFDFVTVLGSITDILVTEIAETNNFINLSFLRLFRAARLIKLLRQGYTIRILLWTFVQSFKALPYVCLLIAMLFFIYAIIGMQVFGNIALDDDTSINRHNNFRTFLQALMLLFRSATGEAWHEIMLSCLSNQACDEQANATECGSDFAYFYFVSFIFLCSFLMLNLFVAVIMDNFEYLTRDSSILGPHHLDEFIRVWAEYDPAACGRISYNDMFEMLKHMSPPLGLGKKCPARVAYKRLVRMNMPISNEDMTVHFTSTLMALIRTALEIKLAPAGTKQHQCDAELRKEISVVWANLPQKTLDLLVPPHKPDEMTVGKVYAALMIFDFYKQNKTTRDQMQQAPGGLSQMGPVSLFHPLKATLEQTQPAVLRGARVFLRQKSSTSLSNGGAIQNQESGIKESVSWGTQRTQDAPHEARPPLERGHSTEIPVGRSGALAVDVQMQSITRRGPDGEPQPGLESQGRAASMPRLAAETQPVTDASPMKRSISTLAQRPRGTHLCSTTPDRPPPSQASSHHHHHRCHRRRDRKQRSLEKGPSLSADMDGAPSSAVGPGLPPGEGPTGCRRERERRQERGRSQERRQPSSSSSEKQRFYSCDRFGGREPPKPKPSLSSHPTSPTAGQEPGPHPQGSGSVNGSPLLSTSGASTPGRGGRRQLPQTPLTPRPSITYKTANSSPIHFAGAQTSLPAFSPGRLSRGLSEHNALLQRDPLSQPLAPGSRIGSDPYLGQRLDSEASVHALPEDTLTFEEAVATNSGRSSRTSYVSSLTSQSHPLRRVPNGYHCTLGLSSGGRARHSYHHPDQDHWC
T3 sequence (Q02410 whole entry): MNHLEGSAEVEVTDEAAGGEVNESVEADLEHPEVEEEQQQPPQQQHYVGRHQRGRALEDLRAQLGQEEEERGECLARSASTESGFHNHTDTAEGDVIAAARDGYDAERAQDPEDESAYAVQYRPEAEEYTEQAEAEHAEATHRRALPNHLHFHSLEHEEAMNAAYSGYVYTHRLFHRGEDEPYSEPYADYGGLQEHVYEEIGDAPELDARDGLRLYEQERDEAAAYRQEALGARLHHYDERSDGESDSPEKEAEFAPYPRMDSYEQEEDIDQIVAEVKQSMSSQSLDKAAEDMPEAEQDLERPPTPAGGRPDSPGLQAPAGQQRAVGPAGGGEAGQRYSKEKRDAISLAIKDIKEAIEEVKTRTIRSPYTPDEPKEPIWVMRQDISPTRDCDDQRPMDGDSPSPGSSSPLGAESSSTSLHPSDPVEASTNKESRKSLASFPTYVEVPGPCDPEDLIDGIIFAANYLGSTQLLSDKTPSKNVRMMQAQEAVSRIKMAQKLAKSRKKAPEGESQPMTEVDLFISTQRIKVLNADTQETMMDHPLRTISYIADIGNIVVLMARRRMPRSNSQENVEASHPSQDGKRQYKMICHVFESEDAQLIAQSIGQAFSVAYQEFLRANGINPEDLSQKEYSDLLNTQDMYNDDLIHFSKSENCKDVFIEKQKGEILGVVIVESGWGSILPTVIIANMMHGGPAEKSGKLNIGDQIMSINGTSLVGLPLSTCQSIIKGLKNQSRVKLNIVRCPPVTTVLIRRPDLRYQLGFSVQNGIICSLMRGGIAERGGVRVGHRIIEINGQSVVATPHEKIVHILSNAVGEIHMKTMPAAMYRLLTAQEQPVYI

[8] = target: T3, Voltage-gated N-type calcium channel alpha-1B subunit/Amyloid beta A4 precursor protein-binding family A member 1; assay: disruptors of Mint-PDZ/N-type channel peptide interaction – biochemical, HTRF, SAR follow-up (AID 2489); type: functional
[9] = target: Protein Rev (Human immunodeficiency virus type 1 group M subtype B (isolate HXB2)(HIV-1), UniProt P04618); assay: inhibitors of Rev binding to RRE RNA, dose response, biochemical, fluorescence polarization, HIV-1 (AID 434976); design: species or system Human immunodeficiency virus 1
Protein Rev, sequence (P04618 whole entry): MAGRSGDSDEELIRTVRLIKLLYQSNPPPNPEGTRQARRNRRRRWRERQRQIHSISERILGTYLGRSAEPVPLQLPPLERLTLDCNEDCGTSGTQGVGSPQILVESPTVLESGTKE

[10] = target: Cytochrome P450 2C19 (Homo sapiens, UniProt P33261); assay: Cytochrome panel assay with activity outcomes. Panel member name: p450-cyp2c19 Compounds with AC50 equal or less than 10 uM are considered active; type: functional
Cytochrome P450 2C19, sequence (P33261 whole entry): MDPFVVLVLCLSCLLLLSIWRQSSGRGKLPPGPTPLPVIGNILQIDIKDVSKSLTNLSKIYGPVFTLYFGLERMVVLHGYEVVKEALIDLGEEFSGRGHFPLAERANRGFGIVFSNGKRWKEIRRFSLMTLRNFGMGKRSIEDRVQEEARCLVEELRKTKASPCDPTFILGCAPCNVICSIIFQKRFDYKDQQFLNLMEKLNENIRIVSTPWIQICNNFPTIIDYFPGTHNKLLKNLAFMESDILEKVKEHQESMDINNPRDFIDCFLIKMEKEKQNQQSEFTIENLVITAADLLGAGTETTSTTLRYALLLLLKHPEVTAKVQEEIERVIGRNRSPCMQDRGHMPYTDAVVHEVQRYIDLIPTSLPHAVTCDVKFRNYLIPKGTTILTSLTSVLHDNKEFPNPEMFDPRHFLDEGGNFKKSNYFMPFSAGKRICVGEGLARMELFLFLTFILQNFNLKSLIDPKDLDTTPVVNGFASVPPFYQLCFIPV

[11] = target: Female germline-specific tumor suppressor gld-1 (Caenorhabditis elegans, UniProt Q17339); assay: inhibitors of GLD-1 binding to TGE RNA, dose response, biochemical, fluorescence polarization, C. elegans (AID 2802);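 further: fluorescence polarization of labeled TGE RNA bound by purified gld-1 protein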
Female germline-specific tumor suppressor gld-1, sequence (Q17339 whole entry): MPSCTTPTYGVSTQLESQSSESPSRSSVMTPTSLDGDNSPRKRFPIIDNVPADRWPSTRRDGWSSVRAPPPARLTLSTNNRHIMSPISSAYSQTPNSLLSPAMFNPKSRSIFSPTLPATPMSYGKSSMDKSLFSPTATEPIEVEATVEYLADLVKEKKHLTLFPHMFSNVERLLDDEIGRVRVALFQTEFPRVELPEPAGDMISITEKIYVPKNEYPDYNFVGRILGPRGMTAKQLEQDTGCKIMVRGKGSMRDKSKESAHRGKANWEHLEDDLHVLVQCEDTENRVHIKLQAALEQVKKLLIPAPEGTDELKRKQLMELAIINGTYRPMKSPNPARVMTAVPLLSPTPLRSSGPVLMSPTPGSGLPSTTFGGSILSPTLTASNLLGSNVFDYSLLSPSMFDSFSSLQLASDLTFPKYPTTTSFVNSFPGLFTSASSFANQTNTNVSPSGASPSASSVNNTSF

[12] = target: T4, Polyadenylate-binding protein 1 (Homo sapiens, UniProt P11940); assay: PABP1 MLLE–PAM2 binding inhibitor potency, dose response, biochemical, fluorescence polarization, FITC-PAM2 peptide (AID 602259); type: functional; details: read-out: IC50_Mean
T4 sequence (P11940 whole entry): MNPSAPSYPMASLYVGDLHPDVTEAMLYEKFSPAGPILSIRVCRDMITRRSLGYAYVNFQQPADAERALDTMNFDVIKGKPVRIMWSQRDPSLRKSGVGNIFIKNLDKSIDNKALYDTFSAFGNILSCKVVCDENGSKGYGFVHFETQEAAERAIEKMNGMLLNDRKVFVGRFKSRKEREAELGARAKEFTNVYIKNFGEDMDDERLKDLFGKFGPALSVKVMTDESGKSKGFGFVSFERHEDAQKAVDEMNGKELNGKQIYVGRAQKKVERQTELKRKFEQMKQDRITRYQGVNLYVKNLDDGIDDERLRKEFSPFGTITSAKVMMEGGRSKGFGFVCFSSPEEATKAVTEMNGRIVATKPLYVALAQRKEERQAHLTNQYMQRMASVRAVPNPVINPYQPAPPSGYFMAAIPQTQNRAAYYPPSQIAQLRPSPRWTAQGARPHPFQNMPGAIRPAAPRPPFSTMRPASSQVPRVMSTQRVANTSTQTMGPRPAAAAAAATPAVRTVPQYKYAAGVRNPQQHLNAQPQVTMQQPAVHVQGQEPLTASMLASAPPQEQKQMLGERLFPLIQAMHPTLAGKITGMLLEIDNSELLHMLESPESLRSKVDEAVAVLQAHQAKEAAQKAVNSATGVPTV

[13] = target: T4, Polyadenylate-binding protein 1; assay: PABP1 MLLE–PAM2 interaction inhibitors, dose response, miRNA deadenylation inhibitor project, biochemical, fluorescence polarization, Cy5-PAM2 peptide, secondary (AID 602260); type: functional; details: read-out: IC50_Mean

With `O=C(Nc1nnc(C2CC2)s1)c1cc([N+](=O)[O-])ccc1N1CCCCC1` the IC50 [1] was > 66.6 µM (inactive) and the IC50 [2] was > 66.6 µM (inactive).
In the case of `N=C1/C(=C\c2ccc(OC(=O)c3ccc(F)cc3)cc2)C(=O)N=C2SC(N3CCOCC3)=NN12`, the IC50 [3] is reported as > 75 µM (active), the AC50 [4] is reported as 22.4 µM (active) and the IC50 [5] is reported as 19.2 µM (active). The EC50 [6] was 17.1 µM (active).
In the case of `O=C(c1cc(-c2ccco2)nc2ccccc12)N1CCN(c2ccccc2)CC1`, the IC50 [7] is reported as > 56.8 µM (inactive) and the IC50 [8] is reported as > 56.8 µM (inactive).
For `O=c1nc2[nH]c3ccccc3nc-2c(=O)[nH]1` [ALLOXAZINE], the IC50 [9] was 12.4 µM (not active), the AC50 [10] was “inconclusive” and the IC50 [11] was 1.47 µM (active). The IC50 [12] was 35.8 µM (inactive) and the IC50 [13] was > 66 µM (inactive).
